Measurements taken from US11096909B2, “Compounds for use in the treatment of cancer” (University of Oulu, priority 2016, dated 2021).

Columns and labels:
ARTD4/PARP4 [1] = target: T1, ARTD4/PARP4 (Homo sapiens, UniProt Q9UKK3); assay: Activity-based fluorescent assay, ARTD4; type: biochemical; design: made in house; host or cells: E. coli
ARTD15/PARP16 = target: T2, ARTD15/PARP16 (Homo sapiens, UniProt Q8N5Y8); assay: Differential scanning fluorimetry, ARTD15
T2 sequence (Q8N5Y8 94-279 limits assumed): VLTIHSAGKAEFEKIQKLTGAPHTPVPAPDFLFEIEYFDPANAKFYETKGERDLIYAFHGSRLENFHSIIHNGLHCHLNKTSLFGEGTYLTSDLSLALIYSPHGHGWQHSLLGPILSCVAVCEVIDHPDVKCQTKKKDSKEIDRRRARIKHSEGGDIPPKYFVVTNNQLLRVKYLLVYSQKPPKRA

ARTD3/PARP3 [2] = target: T3, ARTD3/PARP3 (Homo sapiens, UniProt Q9Y6F1); assay: Activity-based fluorescent assay, ARTD3; type: biochemical
T3 construct: made in house; host or cells: E. coli
T3 sequence (Q9Y6F1 1-533): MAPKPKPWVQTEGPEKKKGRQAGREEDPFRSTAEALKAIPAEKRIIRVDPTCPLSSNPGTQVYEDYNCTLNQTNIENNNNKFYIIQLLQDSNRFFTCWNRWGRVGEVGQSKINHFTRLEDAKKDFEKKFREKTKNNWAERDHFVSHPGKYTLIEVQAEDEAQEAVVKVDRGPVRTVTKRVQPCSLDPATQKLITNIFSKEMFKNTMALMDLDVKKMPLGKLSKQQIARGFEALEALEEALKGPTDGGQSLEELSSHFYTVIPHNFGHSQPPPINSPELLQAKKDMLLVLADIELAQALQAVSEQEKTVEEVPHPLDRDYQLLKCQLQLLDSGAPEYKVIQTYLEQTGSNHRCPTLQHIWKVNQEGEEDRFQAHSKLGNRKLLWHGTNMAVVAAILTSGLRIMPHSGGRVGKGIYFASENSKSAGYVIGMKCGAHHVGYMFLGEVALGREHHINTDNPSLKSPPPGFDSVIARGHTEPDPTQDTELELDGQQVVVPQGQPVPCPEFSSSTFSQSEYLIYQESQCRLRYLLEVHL

ARTD6/PARP5b = target: T4, ARTD6/PARP5b (Homo sapiens, UniProt Q9H2K2); assay: Activity-based fluorescent assay, ARTD6; type: biochemical
T4 construct: made in house; host or cells: E. coli
T4 sequence (Q9H2K2 1-1166): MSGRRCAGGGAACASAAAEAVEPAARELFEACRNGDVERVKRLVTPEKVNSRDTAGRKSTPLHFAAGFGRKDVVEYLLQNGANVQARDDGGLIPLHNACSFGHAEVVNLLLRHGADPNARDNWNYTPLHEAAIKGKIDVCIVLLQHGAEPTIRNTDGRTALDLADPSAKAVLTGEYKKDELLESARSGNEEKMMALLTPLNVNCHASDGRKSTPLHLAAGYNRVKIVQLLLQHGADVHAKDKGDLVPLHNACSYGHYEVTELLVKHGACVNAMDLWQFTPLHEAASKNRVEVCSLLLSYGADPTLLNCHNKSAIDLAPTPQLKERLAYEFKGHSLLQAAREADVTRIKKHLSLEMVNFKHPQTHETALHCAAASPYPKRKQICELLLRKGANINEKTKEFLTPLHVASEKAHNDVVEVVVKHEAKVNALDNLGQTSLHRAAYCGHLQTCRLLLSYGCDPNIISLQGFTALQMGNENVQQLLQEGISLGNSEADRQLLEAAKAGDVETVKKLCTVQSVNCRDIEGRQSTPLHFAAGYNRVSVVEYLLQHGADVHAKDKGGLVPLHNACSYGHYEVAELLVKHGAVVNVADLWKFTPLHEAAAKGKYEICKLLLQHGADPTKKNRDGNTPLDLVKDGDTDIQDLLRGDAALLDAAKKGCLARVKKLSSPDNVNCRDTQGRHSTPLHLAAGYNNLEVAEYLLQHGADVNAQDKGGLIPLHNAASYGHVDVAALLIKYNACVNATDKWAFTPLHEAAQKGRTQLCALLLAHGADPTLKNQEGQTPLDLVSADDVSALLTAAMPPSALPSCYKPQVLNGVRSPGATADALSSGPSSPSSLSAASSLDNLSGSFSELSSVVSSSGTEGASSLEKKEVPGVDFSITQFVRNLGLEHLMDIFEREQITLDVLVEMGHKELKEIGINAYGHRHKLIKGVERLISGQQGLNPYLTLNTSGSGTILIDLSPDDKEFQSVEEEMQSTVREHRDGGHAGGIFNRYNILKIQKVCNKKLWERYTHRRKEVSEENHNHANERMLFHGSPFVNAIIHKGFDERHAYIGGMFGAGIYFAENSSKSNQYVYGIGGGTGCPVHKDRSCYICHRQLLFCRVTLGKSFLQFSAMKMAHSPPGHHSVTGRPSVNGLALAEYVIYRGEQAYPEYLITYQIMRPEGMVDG

HeLa cells = assay: Cytotoxicity in HeLa cells; type: cell-based; settings: 10 μM
ARTD7/PARP15 = target: T5, ARTD7/PARP15 (Homo sapiens, UniProt Q460N3); assay: biochemical
T5 sequence (Q460N3 1-678): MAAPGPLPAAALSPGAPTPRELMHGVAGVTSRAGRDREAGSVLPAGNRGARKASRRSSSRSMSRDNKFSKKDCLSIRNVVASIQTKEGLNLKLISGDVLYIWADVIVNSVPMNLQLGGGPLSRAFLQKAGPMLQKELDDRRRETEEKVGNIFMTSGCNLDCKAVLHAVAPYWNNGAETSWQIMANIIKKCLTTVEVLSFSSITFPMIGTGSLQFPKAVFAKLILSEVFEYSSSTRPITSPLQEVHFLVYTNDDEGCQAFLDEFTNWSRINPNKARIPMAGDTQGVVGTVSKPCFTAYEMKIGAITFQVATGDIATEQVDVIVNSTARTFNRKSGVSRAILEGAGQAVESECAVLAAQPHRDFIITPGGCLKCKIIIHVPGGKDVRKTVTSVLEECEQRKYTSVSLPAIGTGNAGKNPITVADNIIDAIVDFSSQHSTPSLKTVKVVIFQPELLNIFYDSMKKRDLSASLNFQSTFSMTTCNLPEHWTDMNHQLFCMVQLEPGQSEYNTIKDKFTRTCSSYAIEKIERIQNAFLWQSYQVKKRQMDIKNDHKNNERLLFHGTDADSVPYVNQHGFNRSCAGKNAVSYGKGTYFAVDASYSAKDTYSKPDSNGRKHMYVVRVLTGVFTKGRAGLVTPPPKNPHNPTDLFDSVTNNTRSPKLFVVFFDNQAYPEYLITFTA

ARTD4/PARP4 [3] = target: T1, ARTD4/PARP4; assay: Differential scanning fluorimetry, ARTD4; settings: read-out: ΔTm (DSF), ° C. ± STDEV
ARTD3/PARP3 [4] = target: T3, ARTD3/PARP3; assay: Differential scanning fluorimetry, ARTD3; type: binding; settings: read-out: ΔTm (DSF), ° C. ± STDEV
[5] = test system: HeLa cells treated with hydroxyurea; assay: DNA damage experiments with hydroxyurea; type: cell-based; settings: 5 μM OUL35 combined with hydroxyurea, cell confluence at 72 hours
Protocol: FIG. 4. […] Cell confluence is indicated at 72 hours (n=5, data present mean±SEM, n.s=not significant, *P<0.05, **P<0.01).
HeLa cells (ATCC) were grown in Dulbecco's modified Eagle's medium (DMEM, Sigma) supplemented with 10% fetal bovine serum (Lonza), 1× penicillin and streptomycin (Sigma) at 37° C. in a 5% CO2 atmosphere. 4000 cells/well were plated on 96-well plates. […] The DMSO content was kept below 0.05% in all experiments. The 96-well plates were placed in an IncuCyte ZOOM live cell imaging system (Essen BioScience) to follow the cell growth. The plates were scanned in the IncuCyte at 2 hour intervals for 72 hours. Data were analyzed by the IncuCyte Zoom software (Essen BioScience). The results are representative of three (cell growth curves) or five independent experiments (72 h end points) each done in six replicates. P values less than 0.05 were considered as significant (n.s=not statistically significant, *P<0.05, **P<0.01).

ARTD12/PARP12 = ARTD12/PARP12 (Homo sapiens, UniProt Q9H0J9); assay: biochemical
[6] = test system: HeLa cells overexpressing ARTD10; assay: Colony formation assay; type: cell-based; settings: control cells (ARTD10 not induced), 10 μM compound
Protocol: The different compounds were added as indicated with a final concentration of 10 μM. These were replenished every 48 h. (b) Quantification of the colony formation results. The data represent mean values of three independent experiments performed in duplicates with standard deviations.
The cells were grown in DMEM culture media with 10% FCS, and the plates were incubated at 37° C. with 5% CO2. After 24 h of seeding, over expression of ARTD10 was induced by adding 500 ng/ml doxycycline and the media were also supplemented with the tested compounds at 10 μM concentrations. The cells were allowed to proliferate for the next 10 days, after which they were stained with methylene blue to count the number of surviving colonies. The compounds and doxycycline were replenished every 48 h while fresh media (DMEM supplemented with 10% FCS) was added every four days.

ARTD5/PARP5a = target: T6, ARTD5/PARP5a (Homo sapiens, UniProt O95271); assay: Activity-based fluorescent assay, ARTD5; type: biochemical
T6 construct: made in house; host or cells: E. coli
T6 sequence (O95271 1-1327): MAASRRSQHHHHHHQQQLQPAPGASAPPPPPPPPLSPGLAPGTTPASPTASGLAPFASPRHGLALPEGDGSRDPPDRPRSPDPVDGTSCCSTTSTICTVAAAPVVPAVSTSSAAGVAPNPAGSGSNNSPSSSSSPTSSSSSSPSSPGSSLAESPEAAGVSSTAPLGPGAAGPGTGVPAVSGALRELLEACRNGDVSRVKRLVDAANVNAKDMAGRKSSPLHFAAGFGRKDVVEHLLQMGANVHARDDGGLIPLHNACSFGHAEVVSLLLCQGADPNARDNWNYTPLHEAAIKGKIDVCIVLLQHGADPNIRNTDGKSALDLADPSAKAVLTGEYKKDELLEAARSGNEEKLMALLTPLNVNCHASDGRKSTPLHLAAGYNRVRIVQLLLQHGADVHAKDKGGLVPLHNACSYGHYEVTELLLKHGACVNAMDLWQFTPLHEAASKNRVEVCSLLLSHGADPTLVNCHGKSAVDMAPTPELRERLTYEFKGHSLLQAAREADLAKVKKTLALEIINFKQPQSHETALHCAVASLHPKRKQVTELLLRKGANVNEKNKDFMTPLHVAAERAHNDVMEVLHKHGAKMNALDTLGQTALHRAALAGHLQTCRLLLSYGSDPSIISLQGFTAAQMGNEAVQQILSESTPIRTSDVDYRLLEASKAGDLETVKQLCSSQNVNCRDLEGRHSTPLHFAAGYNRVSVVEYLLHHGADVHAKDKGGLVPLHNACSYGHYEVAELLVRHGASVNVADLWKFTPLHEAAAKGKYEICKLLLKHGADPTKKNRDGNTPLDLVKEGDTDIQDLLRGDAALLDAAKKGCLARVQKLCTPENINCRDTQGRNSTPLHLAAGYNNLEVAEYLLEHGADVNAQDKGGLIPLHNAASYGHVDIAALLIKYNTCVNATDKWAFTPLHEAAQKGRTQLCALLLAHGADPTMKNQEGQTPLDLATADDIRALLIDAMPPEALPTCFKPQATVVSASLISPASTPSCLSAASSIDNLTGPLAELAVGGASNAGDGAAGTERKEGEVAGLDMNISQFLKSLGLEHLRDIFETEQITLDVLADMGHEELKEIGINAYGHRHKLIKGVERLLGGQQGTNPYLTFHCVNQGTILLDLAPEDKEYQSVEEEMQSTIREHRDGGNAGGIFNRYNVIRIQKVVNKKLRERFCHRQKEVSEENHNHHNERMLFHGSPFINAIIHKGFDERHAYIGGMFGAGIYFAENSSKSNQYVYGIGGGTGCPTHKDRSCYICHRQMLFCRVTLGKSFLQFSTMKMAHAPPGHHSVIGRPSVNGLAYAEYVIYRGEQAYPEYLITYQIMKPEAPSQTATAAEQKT

T1 sequence (Q9UKK3 whole entry): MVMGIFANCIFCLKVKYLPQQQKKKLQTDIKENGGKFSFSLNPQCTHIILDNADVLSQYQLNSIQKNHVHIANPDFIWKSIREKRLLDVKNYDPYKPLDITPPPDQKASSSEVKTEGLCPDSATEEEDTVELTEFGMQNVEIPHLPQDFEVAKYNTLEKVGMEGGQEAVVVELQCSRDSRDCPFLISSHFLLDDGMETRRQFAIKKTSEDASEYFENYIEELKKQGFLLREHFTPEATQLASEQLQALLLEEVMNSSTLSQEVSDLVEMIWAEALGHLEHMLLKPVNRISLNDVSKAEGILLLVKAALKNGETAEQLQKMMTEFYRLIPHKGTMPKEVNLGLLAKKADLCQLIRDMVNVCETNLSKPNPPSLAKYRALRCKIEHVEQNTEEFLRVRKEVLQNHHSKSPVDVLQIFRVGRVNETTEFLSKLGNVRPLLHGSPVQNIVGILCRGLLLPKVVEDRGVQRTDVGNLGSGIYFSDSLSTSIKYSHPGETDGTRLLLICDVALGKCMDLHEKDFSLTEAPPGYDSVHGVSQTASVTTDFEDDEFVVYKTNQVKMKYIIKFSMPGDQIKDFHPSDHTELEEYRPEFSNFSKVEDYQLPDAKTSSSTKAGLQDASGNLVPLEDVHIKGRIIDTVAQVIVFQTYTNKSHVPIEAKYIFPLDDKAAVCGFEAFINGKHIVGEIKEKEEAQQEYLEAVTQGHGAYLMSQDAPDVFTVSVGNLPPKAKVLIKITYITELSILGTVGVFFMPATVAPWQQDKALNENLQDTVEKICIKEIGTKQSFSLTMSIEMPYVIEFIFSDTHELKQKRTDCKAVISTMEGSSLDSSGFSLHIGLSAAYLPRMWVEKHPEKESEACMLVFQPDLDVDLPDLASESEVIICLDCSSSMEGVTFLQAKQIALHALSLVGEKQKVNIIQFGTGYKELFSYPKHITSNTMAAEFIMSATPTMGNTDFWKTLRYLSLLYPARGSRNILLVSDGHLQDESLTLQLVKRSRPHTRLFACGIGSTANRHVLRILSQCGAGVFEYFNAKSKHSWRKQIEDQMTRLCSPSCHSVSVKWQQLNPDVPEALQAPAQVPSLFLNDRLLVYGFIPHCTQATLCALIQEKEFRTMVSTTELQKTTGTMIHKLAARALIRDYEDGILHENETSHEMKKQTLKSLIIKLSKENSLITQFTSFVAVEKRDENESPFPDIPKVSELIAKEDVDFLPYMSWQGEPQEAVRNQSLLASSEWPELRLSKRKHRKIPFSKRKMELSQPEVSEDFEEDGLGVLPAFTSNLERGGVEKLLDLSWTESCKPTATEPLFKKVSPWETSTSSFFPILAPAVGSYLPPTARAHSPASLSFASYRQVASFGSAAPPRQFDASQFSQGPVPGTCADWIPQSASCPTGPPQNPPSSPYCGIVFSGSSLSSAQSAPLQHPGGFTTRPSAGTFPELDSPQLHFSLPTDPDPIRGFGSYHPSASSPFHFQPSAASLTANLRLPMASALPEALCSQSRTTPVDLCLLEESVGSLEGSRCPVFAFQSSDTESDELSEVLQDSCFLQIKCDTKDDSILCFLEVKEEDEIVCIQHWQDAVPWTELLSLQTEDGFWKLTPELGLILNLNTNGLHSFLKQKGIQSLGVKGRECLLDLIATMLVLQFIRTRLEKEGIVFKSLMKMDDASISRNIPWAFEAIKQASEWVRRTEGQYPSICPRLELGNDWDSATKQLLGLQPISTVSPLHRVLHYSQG
Sequence of ARTD12/PARP12 (Q9H0J9 whole entry): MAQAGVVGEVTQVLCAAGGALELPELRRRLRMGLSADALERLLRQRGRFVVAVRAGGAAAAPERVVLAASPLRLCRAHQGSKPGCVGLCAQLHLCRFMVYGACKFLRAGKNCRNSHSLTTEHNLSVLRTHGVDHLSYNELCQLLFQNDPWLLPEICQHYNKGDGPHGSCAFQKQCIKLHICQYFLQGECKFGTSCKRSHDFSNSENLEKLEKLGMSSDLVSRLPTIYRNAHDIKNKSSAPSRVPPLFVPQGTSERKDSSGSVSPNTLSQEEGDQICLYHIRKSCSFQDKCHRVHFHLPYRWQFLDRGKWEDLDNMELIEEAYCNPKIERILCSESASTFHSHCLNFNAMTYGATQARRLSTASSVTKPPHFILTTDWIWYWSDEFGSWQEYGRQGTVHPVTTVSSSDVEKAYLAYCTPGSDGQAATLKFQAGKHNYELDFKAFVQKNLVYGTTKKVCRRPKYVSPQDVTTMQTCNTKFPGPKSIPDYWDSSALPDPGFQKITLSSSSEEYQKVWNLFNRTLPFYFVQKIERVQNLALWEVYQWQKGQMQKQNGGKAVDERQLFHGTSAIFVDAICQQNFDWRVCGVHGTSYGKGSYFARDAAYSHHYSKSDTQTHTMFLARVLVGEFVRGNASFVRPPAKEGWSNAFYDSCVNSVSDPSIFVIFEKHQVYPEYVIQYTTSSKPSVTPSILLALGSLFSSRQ

NC(=O)c1ccc(Oc2ccc(C(N)=O)cc2)cc1 [OUL35, 4,4′-oxydibenzamide]
IC50 (ARTD4/PARP4 [1]): 22.6 µM
pIC50 ± SEM (ARTD4/PARP4 [1]): 4.65 ± 0.17
stabilization of catalytic domain (DSF) (ARTD15/PARP16; 100 μM OUL35): stabilized the catalytic domains
ΔTm at 100 µM (ARTD15/PARP16; read-out: ΔTm (DSF), ° C. ± STDEV): 2.45 ± 0.11 °C
IC50 (ARTD3/PARP3 [2]): > 100 µM
IC50 (ARTD6/PARP5b): > 100 µM
cytotoxic effect (HeLa cells): no cytotoxic effect
IC50 (ARTD7/PARP15): > 20 µM
ΔTm at 100 µM (ARTD4/PARP4 [3]): 0.84 ± 0.14 °C
ΔTm at 100 µM (ARTD3/PARP3 [4]): 0.09 ± 0.32 °C
sensitivity to hydroxyurea-induced DNA damage [5]: more sensitive to DNA damage in the presence of OUL35
IC50 (ARTD12/PARP12): > 100 µM
toxicity in the control cells [6]: not toxic to control cells
IC50 (ARTD5/PARP5a): > 100 µM
